Inconclusive results and toxic doses are left out.
System: L1210 leukemia ip in BDF1 mice, survival T/C
Experiment: NCI In Vivo Anticancer Drug Screen. Data for tumor model L1210 Leukemia (intraperitoneal) in B6D2F1 (BDF1) mice
Details: endpoint: mean survival time, higher = longer survival
Outline: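 Value reflects the ratio of survival in compound-treated mice to survival in vehicle-treated controls, with both groups carrying the same transplanted tumor.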

[1] = dose: 100.0 mg/kg/injection, schedule: Q01DX001 (ip), vehicle: saline
[2] = dose: 200.0 mg/kg/injection, schedule: Q01DX001 (ip), vehicle: saline

Q: With CCCOP(=S)(N1CC1(C)C)N1CC1(C)C (stereo unspecified) as the molecule, how does the T/C (dose: 3.0 mg/kg/injection, schedule: Q01DX015 (ip), vehicle: carboxymethylcellulose (CMC)) read?
A: 112 % of control

Q: What about the T/C (dose: 6.0 mg/kg/injection, schedule: Q01DX015 (ip), vehicle: carboxymethylcellulose (CMC)) of the same molecule?
A: 105 % of control

Q: What about the T/C (dose: 12.0 mg/kg/injection, schedule: Q01DX015 (ip), vehicle: carboxymethylcellulose (CMC)) of the same molecule?
A: 106 % of control

Q: What about the T/C (dose: 25.0 mg/kg/injection, schedule: Q01DX015 (ip), vehicle: carboxymethylcellulose (CMC)) of the same molecule?
A: 110 % of control

Q: What about the T/C (dose: 44.0 mg/kg/injection, schedule: Q01DX Z (ip), vehicle: carboxymethylcellulose (CMC)) of the same molecule?
A: 103 % of control

Q: And the T/C (dose: 50.0 mg/kg/injection, schedule: Q01DX015 (ip), vehicle: carboxymethylcellulose (CMC))?
A: 115 % of control

Q: And the T/C (dose: 67.0 mg/kg/injection, schedule: Q01DX Z (ip), vehicle: carboxymethylcellulose (CMC))?
A: 113 % of control

Q: And the T/C (dose: 100.0 mg/kg/injection, schedule: Q01DX015 (ip), vehicle: carboxymethylcellulose (CMC))?
A: 151 % of control

Q: And the T/C (dose: 100.0 mg/kg/injection, schedule: Q01DX Z (ip), vehicle: carboxymethylcellulose (CMC))?
A: 111 % of control

Q: And the T/C (dose: 150.0 mg/kg/injection, schedule: Q01DX Z (ip), vehicle: carboxymethylcellulose (CMC))?
A: 122 % of control

Q: Which T/C (dose: 50.0 mg/kg/injection, schedule: Q01DX009 (ip), vehicle: saline) does the source give for O=C(/C=C/c1ccccc1)N1CCOCC1 here?
A: 95 % of control

Q: What about the T/C [1] of the same molecule?
A: 97 % of control

Q: What about the T/C (dose: 100.0 mg/kg/injection, schedule: Q01DX009 (ip), vehicle: saline) of the same molecule?
A: 97 % of control

Q: What about the T/C [2] of the same molecule?
A: 95 % of control

Q: What does the source list for CC(C)(O)C1(O)CCCC1?
A: T/C (dose: 50.0 mg/kg/injection, schedule: Q01DX001 (ip), vehicle: saline): 95 % of control; T/C [1]: 93 % of control; T/C [2]: 101 % of control; T/C (dose: 400.0 mg/kg/injection, schedule: Q01DX001 (ip), vehicle: saline): 93 % of control

Q: Which T/C (dose: 100.0 mg/kg/injection, schedule: Q01DX009 (ip), vehicle: Klucel (hydroxypropylcellulose) (HPC)) does the source give for Cc1ccc([N+](=O)[O-])cc1NC(=O)Nc1ccc([N+](=O)[O-])cc1 here?
A: 90 % of control

Q: And the T/C (dose: 200.0 mg/kg/injection, schedule: Q01DX009 (ip), vehicle: Klucel (hydroxypropylcellulose) (HPC))?
A: 90 % of control

Q: What about the T/C (dose: 400.0 mg/kg/injection, schedule: Q01DX009 (ip), vehicle: Klucel (hydroxypropylcellulose) (HPC)) of the same molecule?
A: 98 % of control

Q: CC(NCCN1CC1)C1CC1 (stereo unspecified) was tested. Which T/C (dose: 20.0 mg/kg/injection, schedule: Q01DX009 (ip), vehicle: saline) did it give?
A: 120 % of control

Q: For Nc1cc(SC(c2ccccc2)c2ccccc2)c([N+](=O)[O-])c(N)n1, which T/C (dose: 100.0 mg/kg/injection, schedule: Q01DX001 (ip), vehicle: saline with Tween-80) is on record?
A: 92 % of control

Q: What about the T/C (dose: 200.0 mg/kg/injection, schedule: Q01DX001 (ip), vehicle: saline with Tween-80) of the same molecule?
A: 101 % of control

Q: And the T/C (dose: 400.0 mg/kg/injection, schedule: Q01DX001 (ip), vehicle: saline with Tween-80)?
A: 95 % of control

Q: What does the source list for CCCCCCCCCCCCCCCCCC[Se]CCCCCCCCCCCCCCCCCC?
A: T/C (dose: 100.0 mg/kg/injection, schedule: Q04DX003 (ip), vehicle: saline with Tween-80): 88 % of control; T/C (dose: 200.0 mg/kg/injection, schedule: Q04DX003 (ip), vehicle: saline with Tween-80): 92 % of control; T/C (dose: 400.0 mg/kg/injection, schedule: Q04DX003 (ip), vehicle: saline with Tween-80): 93 % of control

Q: O=S(=O)(c1ccc(Br)cc1)C(F)(F)F was tested. Which T/C (dose: 100.0 mg/kg/injection, schedule: Q04DX002 (ip), vehicle: saline with Tween-80) did it give?
A: 101 % of control

Q: And the T/C (dose: 200.0 mg/kg/injection, schedule: Q04DX002 (ip), vehicle: saline with Tween-80)?
A: 101 % of control

Q: And the T/C (dose: 400.0 mg/kg/injection, schedule: Q04DX002 (ip), vehicle: saline with Tween-80)?
A: 86 % of control

Q: Which results are given for CCCCCCC(O)CO (stereo unspecified)?
A: T/C (dose: 100.0 mg/kg/injection, schedule: Q04DX003 (ip), vehicle: saline): 105 % of control; T/C (dose: 200.0 mg/kg/injection, schedule: Q04DX003 (ip), vehicle: saline): 112 % of control; T/C (dose: 400.0 mg/kg/injection, schedule: Q04DX003 (ip), vehicle: saline): 109 % of control

Q: Which results are given for ClCC1CNC(c2ccccc2)O1 (stereo unspecified)?
A: T/C (dose: 12.5 mg/kg/injection, schedule: Q04DX003 (ip), vehicle: saline with Tween-80): 96 % of control; T/C (dose: 25.0 mg/kg/injection, schedule: Q04DX003 (ip), vehicle: saline with Tween-80): 101 % of control; T/C (dose: 50.0 mg/kg/injection, schedule: Q04DX003 (ip), vehicle: saline with Tween-80): 98 % of control; T/C (dose: 100.0 mg/kg/injection, schedule: Q01DX001 (ip), vehicle: carboxymethylcellulose (CMC)): 95 % of control; T/C (dose: 200.0 mg/kg/injection, schedule: Q01DX001 (ip), vehicle: carboxymethylcellulose (CMC)): 93 % of control; T/C (dose: 400.0 mg/kg/injection, schedule: Q01DX001 (ip), vehicle: carboxymethylcellulose (CMC)): 101 % of control

Q: Which T/C (dose: 9.5 mg/kg/injection, schedule: Q01DX001 (ip), vehicle: other) does the source give for NC(N)=Nc1ncnc2nncnc12 here?
A: 102 % of control

Q: And the T/C (dose: 19.0 mg/kg/injection, schedule: Q01DX001 (ip), vehicle: other)?
A: 102 % of control

Q: And the T/C (dose: 38.0 mg/kg/injection, schedule: Q01DX001 (ip), vehicle: other)?
A: 102 % of control

Q: COC1OC2COC(c3ccccc3)OC2C(NC(C)=O)C1O (stereo unspecified) was tested. Which T/C (dose: 100.0 mg/kg/injection, schedule: Q04DX002 (ip), vehicle: Klucel (hydroxypropylcellulose) (HPC)) did it give?
A: 101 % of control

Q: And the T/C (dose: 200.0 mg/kg/injection, schedule: Q04DX002 (ip), vehicle: Klucel (hydroxypropylcellulose) (HPC))?
A: 111 % of control

Q: And the T/C (dose: 400.0 mg/kg/injection, schedule: Q04DX002 (ip), vehicle: Klucel (hydroxypropylcellulose) (HPC))?
A: 105 % of control

— PubChem BioAssay AID248 (DTP/NCI, 2004)
